According to patent publication US4645774A, “Aminoethoxybenzylalcohol derivatives, process for their preparation and pharmaceutical compositions containing them” (Richter Gedeon Vegyeszeti Gyar Rt, priority 1982, dated 1987):

What was measured:
acute toxicity = test: acute toxicity; parameters: species or system rat (H-Wistar, both sexes); conditions: rat, in vivo, po; for mortality at 336 h: 500 mg./kg. p.o. single dose, 14 days observation, n=10, read-out: Perished animals
Protocol: The acute toxicity of the compounds of the formula (I) was determined on H-Wistar rats of both sexes, each weighing 160 to 180 g. The compounds were administered in a single 500 mg./kg. dose, orally.

hexobarbital oxidase = test: in vivo measurement of hexobarbital oxidase activity (hexobarbital narcosis period); parameters: species or system rat (female Hann.-Wistar); conditions: 40 mg./kg. oral single dose, n=10, mean ± S.E.; for Narcosis period in % of the control, 1 hour: hexobarbital sodium 60 mg./kg. i.v. 1 hour after; for Narcosis period in % of the control, 24 hours: hexobarbital sodium 60 mg./kg. i.v. 24 hours after
Protocol: The enzyme-inducing potency of the new compounds according to the invention was determined by several methods. One of these methods was the in vivo measurement of hexobarbital oxidase activity.
To determine the change of hexobarbital oxidase activity female Hann.-Wistar rats, each weighing 50 to 60 g. were treated orally with a single 40 mg./kg. dose of the active agent. One and 24 hours after the administration of the active agent, respectively, the animals were narcotized with a 60 mg./kg. i.v. dose of hexobarbital sodium, and the time elapsed until complete wakening from ceasing of the righting reflex was measured (Noordhoex J.: Eur. J. Pharmacol, 3, 242, 1968). As a reference compound phenobarbital was used. The data were recorded, and the mean values, the standard errors, as well as the percentage increase with respect to the control were calculated for each group. Abbreviations:
S.E.=standard error of the mean value,
The control group was treated with a placebo. [formula] A=α-ethyl-α-(3-trifluoromethylphenyl)-4-[2-(piperidin-l-yl)-eth oxy]-benzylalcohol;

aniline hydroxylase = test: activity of aniline hydroxylase (p-aminophenol formation); type: in vivo, rat (female H. Wistar); conditions: 40 mg./kg. single oral dose, 24 hours; control 20.3 ± 0.88; ± S.E.
Protocol: (§1) The enzyme inducing activity of the compounds of the formula (I) was further tested by determining the activity of the polysubstrate monooxygenase enzyme system of the liver after treatment with a placebo and the compounds according to the invention, respectively. Female H. Wistar rats each weighing 50 to 60 g. were administered a single 40 mg./kg. dose of the test compounds, orally. 24 hours after treatment the animals were decapitated and the livers were eliminated. […] The cytochrome P-450 concentration was determined from the carbon monoxide differential spectrum of a reduced microsomal suspension (Omura T. et al.: J. Biol. Chem. 239, 2370 (1964)), the quantity of cytochrome b-5 was determined from a NADH differential spectrum (Raw J. et al.: J. Biol. Chem. 234, 1867 (1959)). The activity of NADPH: ferricytochrome C (P-450) reductase (E.C. 1.6.2.4) was measured according to Williams C. […] The activity of aniline hydroxylase was determined according to Chhabra R. S. et al.: Toxicol. […] Pharmacol., 22, 50 (1972) by measuring the velocity of p-aminophenol formation, while the […] activity was determined on the basis of the quantity of formaldehyde formed, following the method of Gourlay G. K. et al.: Biochem. Pharmacol., 27, 965 (1978). […]

liver = test: Relative weight of liver after treatment; type: in vivo, rat (female H. Wistar); conditions: 40 mg./kg. single oral dose, 24 hours; control 4.3 ± 0.17; ± S.E.
Protocol: as §1

[1] = system: aminopyridine demethylase; test: aminopyridine demethylase activity (formaldehyde formed); type: in vivo, rat (female H. Wistar); conditions: 40 mg./kg. single oral dose, 24 hours; control 254.8 ± 7.47; ± S.E.
Protocol: as §1

[2] = system: NADPH: ferricytochrome C (P-450) reductase (E.C. 1.6.2.4); test: activity of NADPH: ferricytochrome C (P-450) reductase; type: in vivo, rat (female H. Wistar); conditions: 40 mg./kg. single oral dose, 24 hours; control 4686 ± 286.2; ± S.E.
Protocol: as §1

Microsomal protein = Microsomal protein of the liver after treatment; type: in vivo, rat (female H. Wistar); conditions: 40 mg./kg. single oral dose, 24 hours; control 29.3 ± 1.01; ± S.E.
Protocol: as §1

Cytochrome P-450 = Cytochrome P-450 concentration from carbon monoxide differential spectrum; type: in vivo, rat (female H. Wistar); conditions: 40 mg./kg. single oral dose, 24 hours; control 12.8 ± 0.63; ± S.E.
Protocol: as §1

Cytochrome b-5 = Cytochrome b-5 quantity from NADH differential spectrum; type: in vivo, rat (female H. Wistar); conditions: 40 mg./kg. single oral dose, 24 hours; control 8.6 ± 0.43; ± S.E.
Protocol: as §1

mice and rats = type: in vivo; conditions: orally, even in a dose of 40 mg./kg.
Excerpt: The central nervous activities of the compounds according to the invention were examined on mice and rats with the following methods: electroshock (Swinyard, E. A., Brown, W. C., Goodman, L. S.: J. Pharmacol. Exp. Ther. 106, 319 (1952)), metrazole spasm (Everett, G. M., Richards, R. K.: J. Pharmacol. Exp. Ther. 81, 402 (1944)), thiosemicarbazide spasm ( Da Venzo, J. P., Greig, M. E., Cormin, M. A.: Amer. J. Physiol. 201, 833 (1961)), strychnine spasm (Kerley, T. L., Richards, A. G., Begley, R. W., Abreu, B. B., Wesver, L. C.: J. Pharmacol. Exp. Ther. 132, 360 (1961)), nicotine spasm (Stone, C. A., Mecklenburg, K. L., Torhans, M. L.: Arch. Int. Pharmacodyn. 117, 419 (1958)), rotarod test (Kinnard, W. C., Carr, C. J.: J. Pharmacol. Expt. Ther. 121, 354 (1957)), physostigmine lethality preventing effect (Nose, T., Kojima, M.: Europ. J. Pharmacol. 10, 83 (1970)), yohimbine potentiation effect (Quinton, R. M.: Brit. J. Pharmacol. 21, 51 (1963)), and analgesic activity (Bianchi, G., Francheschini, J.: Brit. J. Pharm. Chemother. 9, 280 (1954)).
As a reference substance, phenobarbital was used. […].

Row | SMILES | mortality at 336 h (acute toxicity) | Narcosis period in % of the control, 1 hour (hexobarbital oxidase) | Narcosis period in % of the control, 24 hours (hexobarbital oxidase) | Aniline hydroxylase (nmoles/g. of liver/min.), % of control (aniline hydroxylase) | Relative weight of liver (g./100 g. of body weight), % of control (liver) | Aminopyridine demethylase (nmoles/g./min.), % of control [1] | c(P-450)reductase (nmoles/g. of liver/min.), % of control [2] | Microsomal protein (mg./g. of liver), % of control (Microsomal protein) | Cytochrome P-450 (nmoles/g. of liver), % of control (Cytochrome P-450) | Cytochrome b-5 (nmoles/g. of liver), % of control (Cytochrome b-5) | LD50 (acute toxicity; footnote x of Table 3) | central nervous activities (mice and rats)
1 | CCC(O)(c1ccc(OCCN2CCCCC2)cc1)c1cccc(C(F)(F)F)c1 (stereo not drawn) [A, α-Ethyl-α-(3-trifluoromethylphenyl)-4-[2-(piperidin-1-yl)-ethoxy]-benzylalcohol] | 0% | 177 ± 5.0% | 49 ± 0.7% |  |  |  |  |  |  |  |  | 
2 | CCC(O)(c1ccc(OCCN(C)C)cc1)c1cccc(C(F)(F)F)c1 (stereo not drawn) [B, α-ethyl-α-(3-trifluoromethylphenyl)-4-[2-(dimethylamino)-ethoxy]-benzylalcohol] | 0% | 180 ± 10.0% | 49 ± 3.3% |  |  |  |  |  |  |  |  | 
3 | CCC(O)(c1ccc(OCCN2CCCC2)cc1)c1ccccc1OC (stereo not drawn) [C, α-Ethyl-α-(2-methoxyphenyl)-4-[2-(pyrrolidin-1-yl)-ethoxy]-benzylalcohol] | 0% | 113 ± 12.0% | 57 ± 7.8% |  |  |  |  |  |  |  |  | 
4 | CCC(O)(c1ccc(F)cc1)c1ccc(OCCN2CCCCC2)cc1 (stereo not drawn) [D, α-Ethyl-α-(4-fluorophenyl)-4-[2-(piperidin-1-yl)-ethoxy]-benzylalcohol] | 0% | 120 ± 4.2% | 53 ± 3.7% | 131 ± 5.9% | 122 ± 4.9% | 123 ± 7.8% | 178 ± 16.2% | 111 ± 4.2% | 163 ± 8.7% | 116 ± 4.8% |  | 
5 | CCC1(c2ccccc2)C(=O)NC(=O)NC1=O [phenobarbital, reference compound] |  | 250 ± 15.8% | 60 ± 7.3% |  |  |  |  |  |  |  | 245 mg/kg | strong anticonvulsive muscle-coordinating and sedative effects
